Laboratory results published in patent US20040191843A1, “Cell-killing molecules and methods of use thereof” (Palo Alto Institute of Molecular Medicine, priority 2003, published 2004).

System: U9-TR
Assay: DNA fragmentation in whole cells (release of 3H-labeled DNA fragments, 4 h)
Format: cell-based, human
Procedure: DNA fragmentation in whole cells or normal nuclei isolated from U937 or MCF-7 cells was assayed by release of (3H)thymidine-labeled DNA fragments as described in detail previously (Wright et al. (1994) J. Exp. Med. 180, 2113-2123). DNA fragmentation induced by rADF treatment of isolated nuclei for four h was analyzed by agarose electrophoresis as described in detail previously (Wright et al. (1994) supra). In four h assays using isolated nuclei, the buffer was supplemented with an ATP regenerating system (2 mM ATP, 10 mM phosphocreatine, and 50 μg/ml creatine kinase).
Another mechanism whereby cancer cells may resist apoptosis is through overexpression of heat shock (HS) proteins which have been found at high levels in most tumor cell biopsies (Jaattela, et al., 1999, Exp Cell Res 248:30-43). […] We have studied the mechanisms of apoptosis resistance using several variants derived from the U937 cell line. Variants generated by prolonged growth in the presence of TNF (U9-TR) or by nutritional depletion of intracellular NAD content (U9-NAD-) have been described in the literature previously (Wright, et al., 1992, Cancer Immunol Immunother 34:399-406; Wright, et al., 1996b, J. Exp. Med. 183: 463-477). Both of these variants were resistant to apoptosis induced by diverse agents, such as chemotherapeutic drugs, UV light, and TNF.

COc1cc([C@@H]2c3cc4c(cc3[C@@H](O[C@@H]3O[C@@H]5CO[C@@H](C)O[C@H]5[C@H](O)[C@H]3O)[C@H]3COC(=O)[C@H]23)OCO4)cc(OC)c1O [Etoposide, etoposide]
fold increase of IC50 values in resistant variants: > 41 fold
